Drawing on patent US20250241926A1, “HETEROCYCLIC COMPOUNDS FOR USE IN THE TREATMENT OF CANCER” (ARTIOS PHARMA LIMITED, priority 2021, published 2025), this text covers kinact/KI for 15 compounds.

The target in the first experiment is T1, Human Polθ polymerase domain (aa1820-2590) (Homo sapiens, UniProt O75417).
T1 construct: Human Polθ polymerase domain (aa1820-2590) was expressed in E. Coli; made in house; host or cells: E. coli
T1 sequence (O75417 1820-2590): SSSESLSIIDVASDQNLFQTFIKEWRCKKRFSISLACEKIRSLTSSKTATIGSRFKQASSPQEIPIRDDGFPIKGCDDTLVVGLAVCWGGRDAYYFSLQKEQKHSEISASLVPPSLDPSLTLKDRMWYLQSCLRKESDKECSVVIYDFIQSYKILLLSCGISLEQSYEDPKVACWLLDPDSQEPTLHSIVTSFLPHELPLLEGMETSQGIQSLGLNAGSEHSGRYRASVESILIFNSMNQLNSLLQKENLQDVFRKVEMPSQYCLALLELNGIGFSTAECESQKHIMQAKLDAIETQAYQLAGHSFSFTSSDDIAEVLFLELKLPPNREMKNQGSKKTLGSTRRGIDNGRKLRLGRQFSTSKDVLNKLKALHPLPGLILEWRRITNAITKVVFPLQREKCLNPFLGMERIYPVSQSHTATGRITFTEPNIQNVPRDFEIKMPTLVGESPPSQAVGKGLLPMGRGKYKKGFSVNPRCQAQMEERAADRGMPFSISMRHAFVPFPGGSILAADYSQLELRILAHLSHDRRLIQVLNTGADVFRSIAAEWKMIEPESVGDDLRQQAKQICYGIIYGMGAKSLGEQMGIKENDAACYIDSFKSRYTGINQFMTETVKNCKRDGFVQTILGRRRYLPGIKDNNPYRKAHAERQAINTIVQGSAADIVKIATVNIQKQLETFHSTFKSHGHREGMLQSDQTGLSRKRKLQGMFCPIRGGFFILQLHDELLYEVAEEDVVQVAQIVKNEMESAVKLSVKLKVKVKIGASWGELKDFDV
The experiment can be described thus: Polθ Polymerase Domain Kinact/Kl Assay (PicoGreen). The class given is biochemical. The settings on record: covalent inhibitors, kobs vs [I] fit, 0.8 nM Polθ, 100 nM DNA substrate. As to the method: Polθ Polymerase Domain Kinact/Kl Assay
A PicoGreen assay was used to measure the Kinact and Kl values of covalent compounds that inhibit the activity of Polθ in vitro.
Human Polθ polymerase domain (aa1820-2590) was expressed in E. Coli, purified, aliquoted and stored at −80° C. until required. Polθ substrate was generated from a 1.2:1 mix of DNA II Short to DNA II Long to give a final concentration of […] substrate in annealing buffer (20 mM Tris pH 7.5, 50 mM NaCl). The substrate was heated in 50 mL aliquots to 95° C. in a heating block for 5 min before the heating block switched off, the reaction left to cool to rt and stored at −20° C. until required.
Assay measurements were performed with 1× buffer comprising 25 mM Tris pH 7.5, 12.5 mM NaCl, […], 5% (v/v) glycerol, 0.01% v/v Triton x-100, 0.1 mg/ml BSA, 1 mM DTT. Test compounds were prepared by dilution in 100% DMSO to give a 12 μM intermediate stock of each (100× final top concentration). 100 nL of 23× 1:1.5-fold serial dilutions and a DMSO only control were dispensed using the Tecan dispenser into Greiner 384 well black low volume plates (product code 784076). DMSO concentration was maintained at 1% of the final assay volume by back filling with DMSO.
2× Working stock of substrate (200 nM of DNA substrate and […] dNTPs) and enzyme (1.4 nM Polθ) were made up in assay buffer. 5 μL/well of both enzyme and substrate 2× solutions were dispensed using a Tempest dispenser (Formulatrix) into assay plates that had been pre-dispensed with compound to give a final assay concentration of 100 nM DNA substrate, […] dNTPs and 0.8 nM Polθ. To stop the reaction, […] of a solution containing 25 mM Tris-HCl pH 7.5 and 20 mM EDTA was added at […] (t=0, 2.5, 5, 7.5, 10, 12.5, 15, 20, 25, 30, 35, 40, 45, 50, 55 and 60 min) using the Tempest's time delay function. The plates were covered during the time course to prevent evaporation. After completing the assay, 5 μL of detection reagent (25 mM Tris-HCl pH 7.5 and 2.5% (v/v) PicoGreen) was dispensed into the wells using a Tempest liquid handler (Formulatrix) and plates subsequently read on the CLARIOstar Plus (BMG Labtech) using the default optical settings for fluorescein and the auto gain/focus settings.
All data analysis was carried out using GraphPad Prism V. 8 (GraphPad Software Inc, San Diego, CA) Time course data for each inhibitor concentration was fitted to equation 1 to determine kobs values.^1 Any time points where the control (DMSO alone) reaction was no longer linear were excluded from the analysis.
A secondary plot of kobs vs [I] is used to determine the Kinact and Kl parameters (for a 2-step covalent inhibitor) by fitting to equation 2.1
[formula] • 1) Evaluation of Enzyme Inhibitors in Drug Discovery (Ch9), R. A Copeland, Wiley, 2nd Edition 2013.
For “2-(((3S)-6-(2-(7- ((E)-4-(Dimethyl- amino)but-2-eno- yl)-1-oxo-2,7- diazaspiro[4.4] nonan-2-yl)ethyl)- 7-fluoro-1- methyl-2-oxo- 1,2,3,4,5,6-hexa- hydrobenzo[b] [1,4]diazocin-3- yl)amino)-6-meth- yl-4-(trifluoro- methyl)nicotino- nitrile [Example 47]”, the kinact/KI came to 380000 M⁻¹ s⁻¹.

Take “2-(((S)-6-(2-((1R,4R)-5- (1-Acryloylazetidin-3-yl)- 2,5-diazabicyclo[2.2.1] heptan-2-yl)ethyl)-7- fluoro-1-methyl-2-oxo- 1,2,3,4,5,6-hexahydro- benzo[b][1,4]diazocin-3- yl)amino)-6-methyl-4- (trifluoromethyl)nicotino- nitrile [Example 18]”: the kinact/KI came to 230000 M⁻¹ s⁻¹.

Consider “2-(((S)-6-(2-((1S,4S)-5- (1-Acryloylazetidin-3-yl)- 2,5-diazabicyclo[2.2.1] heptan-2-yl)ethyl)-7- fluoro-1-methyl-2-oxo- 1,2,3,4,5,6-hexahydro- benzo[b][1,4]diazocin-3- yl)amino)-6-methyl-4- (trifluoromethyl)nicotino- nitrile [Example 19]”, for which the kinact/KI was 160000 M⁻¹ s⁻¹.

“2-(((S)-6-(2-((R)-4-(1- Acryloylazetidin-3-yl)-2- methylpiperazin-1-yl)eth- yl)-7-fluoro-1-methyl-2- oxo-1,2,3,4,5,6-hexahydro- benzo[b][1,4]diazocin-3- yl)amino)-6-methyl-4- (trifluoromethyl)nicotino- nitrile [Example 15]”: the kinact/KI turned out to be 280000 M⁻¹ s⁻¹.

With “2-(((S)-6-(2-((S)-4-(1- Acryloylazetidin-3-yl)-2- methylpiperazin-1-yl)eth- yl)-7-fluoro-1-methyl-2- oxo-1,2,3,4,5,6-hexahydro- benzo[b][1,4]diazocin-3- yl)amino)-6-methyl-4- (trifluoromethyl)nicotino- nitrile [Example 14]”, the kinact/KI is 780000 M⁻¹ s⁻¹.

For the compound `Cc1cc(C(F)(F)F)c(C#N)c(N[C@H]2CCN(CC(O)CN3CCN(C(=O)/C=C/CN(C)C)CC3)c3c(F)cccc3N(C)C2=O)n1` (mixture of isomers) [Example 32A, 2-(((S)-6-((S/R)-3-(4-((E)-4-(Dimethylamino)but-2-enoyl)piperazin-1-yl)-2-hydroxypropyl)-7-fluoro-1-methyl-2-oxo-1,2,3,4,5,6-hexahydrobenzo[b][1,4]diazocin-3-yl)amino)-6-methyl-4-(trifluoromethyl)nicotinonitrile], the kinact/KI is 770000 M⁻¹ s⁻¹.

Turning to `C=CC(=O)N1CCN(CC(O)CN2CC[C@H](Nc3nc(C)cc(C(F)(F)F)c3C#N)C(=O)N(C)c3ccc(F)cc32)CC1` (mixture of isomers) [Example 33A, 2-(((S)-6-((S/R)-3-(4-Acryloylpiperazin-1-yl)-2-hydroxypropyl)-8-fluoro-1-methyl-2-oxo-1,2,3,4,5,6-hexahydrobenzo[b][1,4]diazocin-3-yl)amino)-6-methyl-4-(trifluoromethyl)nicotinonitrile], the kinact/KI came to 150000 M⁻¹ s⁻¹.

In the case of `Cc1cc(C(F)(F)F)c(C#N)c(N[C@H]2CCN(CC(O)CN3CCN(C(=O)/C=C/CN(C)C)CC3)c3cc(F)ccc3N(C)C2=O)n1` (mixture of isomers) [Example 34A, 2-(((S)-6-((S/R)-3-(4-((E)-4-(Dimethylamino)but-2-enoyl)piperazin-1-yl)-2-hydroxypropyl)-8-fluoro-1-methyl-2-oxo-1,2,3,4,5,6-hexahydrobenzo[b][1,4]diazocin-3-yl)amino)-6-methyl-4-(trifluoromethyl)nicotinonitrile], the kinact/KI turned out to be 190000 M⁻¹ s⁻¹.

Regarding `C=CC(=O)N1CC(N2CC(=O)N(C)C(CN3CC[C@H](Nc4nc(C)cc(C(F)(F)F)c4C#N)C(=O)N(C)c4cccc(F)c43)C2)C1` (mixture of isomers) [Example 58A, 2-(((S)-6-(((S/R)-4-(1-Acryloylazetidin-3-yl)-1-methyl-6-oxopiperazin-2-yl)methyl)-7-fluoro-1-methyl-2-oxo-1,2,3,4,5,6-hexahydrobenzo[b][1,4]diazocin-3-yl)amino)-6-methyl-4-(trifluoromethyl)nicotinonitrile], the kinact/KI was 60000 M⁻¹ s⁻¹.

For `C=CC(=O)N1CCN2CCN(CCN3CC[C@H](Nc4nc(C)cc(C(F)(F)F)c4C#N)C(=O)N(C)c4cccc(F)c43)CC2C1` (mixture of isomers) [Example 72B, 2-(((S)-6-(2-((S/R)-8-acryloyloctahydro-2H-pyrazino[1,2-a]pyrazin-2-yl)ethyl)-7-fluoro-1-methyl-2-oxo-1,2,3,4,5,6-hexahydrobenzo[b][1,4]diazocin-3-yl)amino)-6-methyl-4-(trifluoromethyl)nicotinonitrile], the kinact/KI stood at 630000 M⁻¹ s⁻¹.

Still in this experiment, the particulars now being: covalent inhibitors, kobs vs [I] fit, 0.8 nM Polθ, 100 nM DNA substrate, read-out: Kinact/KI.
With `CO[C@H]1CN(C(=O)/C=C/CN(C)C)C[C@@H]1C(=O)N(C)CCN1CC[C@H](Nc2nc(C)cc(C(F)(F)F)c2C#N)C(=O)N(C)c2cccc(F)c21` (relative stereo) [Example 28, (rel-3S,4R)—N-(2-((S)-4-((3-Cyano-6-methyl-4-(trifluoromethyl)pyridin-2-yl)amino)-10-fluoro-6-methyl-5-oxo-3,4,5,6-tetrahydrobenzo[b][1,4]diazocin-1(2H)-yl)ethyl)-1-((E)-4-(dimethylamino)but-2-enoyl)-4-methoxy-N-methylpyrrolidine-3-carboxamide], the kinact/KI worked out at 560000 M⁻¹ s⁻¹.

In the case of `CO[C@H]1CN(C(=O)/C=C/CN(C)C)C[C@@H]1COCCN1CC[C@H](Nc2nc(C)cc(C(F)(F)F)c2C#N)C(=O)N(C)c2cccc(F)c21` (relative stereo) [Example 48, 2-(((S)-6-(2-(((rel-3R,4R)-1-((E)-4-(Dimethylamino)-but-2-enoyl)-4-methoxypyrroli-din-3-yl)methoxy)-ethyl)-7-fluoro-1-methyl-2-oxo-1,2,3,4,5,6-hexa-hydrobenzo[b] [1,4]diazocin-3-yl)amino)-6-meth-yl-4-(trifluoro-methyl)nicotino-nitrile], the kinact/KI is 680000 M⁻¹ s⁻¹.

`Cc1cc(C(F)(F)F)c(C#N)c(N[C@H]2CCN(CC(O)CN3CCN(C(=O)/C=C/CN(C)C)CC3)c3c(F)cccc3N(C)C2=O)n1` (single isomer, unassigned) [Example 32B]: the kinact/KI worked out at 1e+06 M⁻¹ s⁻¹.

`C=CC(=O)N1CCN(CC(O)CN2CC[C@H](Nc3nc(C)cc(C(F)(F)F)c3C#N)C(=O)N(C)c3ccc(F)cc32)CC1` (single isomer, unassigned) [Example 33B]: the kinact/KI was found to be 120000 M⁻¹ s⁻¹.

Turning to `Cc1cc(C(F)(F)F)c(C#N)c(N[C@H]2CCN(CC(O)CN3CCN(C(=O)/C=C/CN(C)C)CC3)c3cc(F)ccc3N(C)C2=O)n1` (single isomer, unassigned) [Example 34B], the kinact/KI was 680000 M⁻¹ s⁻¹.
